Reference: patent EP0119332A1, “Novel pyranose oxidase processes for the production and use thereof and test compositions for use therein” (priority 1983, dated 1984)
Where two headings read alike, the source gives them in different places.

Tests used:
Assay type in all cases: biochemical
pyranose oxidase [1] = biological target: T1, pyranose oxidase (Trametes versicolor, UniProt P79076)
T1 construct: made in house; host or cells: Coriolus versicolor ATCC 20155, the native producer (not recombinant); Enzyme was purified from disrupted mycelium by HPA-75, Sepharose 4B and Sephadex G-100 columns
Method: In this phase, 1.4 ml of 50 mM tris-hydrochloride buffer (pH 7.0), 0.1. ml of 250 mU enzyme solution and 0.5 ml of electron acceptor solutions having various concentrations as indicated in Table 2 were put into a cell with Thunberg tube. After saturating with dissolved oxygen, the reaction solution was mixed with 0.5 ml of a 0.1 M glucose solution. The change in absorbancy per minute from 30 minutes to 90 minutes after mixing was determined and the activities of the electron acceptors are expressed as relative activity.

pyranose oxidase [2] = biological target: T1, pyranose oxidase; assay: biochemical
Method: Samples of the enzyme were dissolved in Tris buffer solutions have the pH indicated in Figure 2 to make up enzyme solutions having an activity of 250 mU/3.7 ml. Each of the enzyme solutions was put into a BIOXYGRAPH cell (trade name for a cell for measuring oxygen concentration made by Kyusui Kagaku Laboratory, Japan), and 50 µℓ of 1 M glucose were added. Measurements were made to determine the amount of absorbed oxygen.
Various inhibitors were studied in the same manner as that adopted in determination of the optimum pH. A reaction solution comprising 3.4 ml of 50 mM tris-hydrochloride buffer (pH 7.0), 0.1 ml of enzyme solutin containing 280 mU of pyranose oxidase and 0.2 ml of 18.5 mM inhibitor solution were put into a cell for measuring oxygen uptake and 50µℓof 1M glucose were added thereto and the sample incubated at 37°C.

pyranose oxidase [3] = biological target: T1, pyranose oxidase; assay: Substrate specificity (relative activity on carbohydrates, peroxidase/4AA-phenol colour assay); conditions: substrate: 0.1 ml of 100 mM carbohydrate liquor; enzyme 2.5 U/ml; percentage of the glucose reaction
Method: A 3.0 ml sample is first prepared comprising 1.0 ml of 0.1 M tris-hydrochloride buffer (pH 7.0), 0.2 ml of a colouring reagent prepared in advance as hereinafter described, 0.1 ml of 1 M glucose solution, 0.1 ml of a solution of the pyranose oxidase at a known concentration, 0.1 ml of 0.1 mM flavinadenine dinucleotide and 1.5 ml of distilled water. Said colouring reagent is prepared by adding 0.1 M tris-hydrochloride buffer (pH 7.0) containing 10 m mol ℓ4-aminoantipyrine (hereinafter referred to as 4AA) and 10 m mol/Zphenol, to an amount of a peroxidase which is sufficient to provide a peroxidase concentration in said buffer of 2000 U per 100 mI. The pyranose oxidase containing sample is incubated at 37°C and the increasing rate of the absorbancy at 500 nm is automatically measured on a spectrophotometer. If the molecular extinction coefficient of a quinoneimine pigment formed under these conditions is defined as 5.3 x 10^3, and one unit of enzymatic activity is defined as the amount of the enzyme that produces one µ mole of hydrogen peroxide per minute at a temperature of 37°C and at a pH of 7.0, then the enzymatic activity (A) of the pyranose oxidase in the sample can be defined by the following formula:- [formula] where A500 is the rate of increase of the absorbancy of the sample per minute at 500nm.
The same reactions as described in the assay method for enzymatic activity were repeated except that an enzyme concentration of 2.5 U/ml was used, and, as the substrate, 0.1 ml samples of various carbohydrate liquors indicated in Table I were used, each such liquor having a concentration of 100 mM. […] The specificity with respect to the latter two, in particular being a great deal lower than that of the known pyranose oxidase derived from microorganisms of the genus Polyporus (Table 1 of B.B.A. 167, 501-510 (1968)).

[4] = electron acceptor concentration 0.1 mM, pH 7.0, 250 mU enzyme solution, 0.1 M glucose solution
[5] = 0.2 ml of 18.5 mM inhibitor solution, 280 mU pyranose oxidase, pH 7.0, 37°C, 50 µl of 1M glucose

Molecule: O=C1C(Cl)=CC(=Nc2ccc(O)cc2)C=C1Cl [2,6-Dichlorophenolindophenol]
- Relative Activity (%) (pyranose oxidase [1]; electron acceptor concentration 0.04 mM, pH 7.0, 250 mU enzyme solution, 0.1 M glucose solution): 2.5%

Molecule: Oc1cccc2cccnc12 [8-hydroxyquinoline]
- Percent Inhibition (%) (pyranose oxidase [2]; pH 7): 13.3%

Molecule: NC(=O)c1ccc[n+]([C@@H]2O[C@H](COP(=O)([O-])OP(=O)(O)OC[C@H]3O[C@@H](n4cnc5c(N)ncnc54)[C@H](OP(=O)(O)O)[C@@H]3O)[C@@H](O)[C@H]2O)c1 [Nicotinamide-adenine dinucleotide phosphate]
- Relative Activity (%) (pyranose oxidase [1]; [4]): 0%

Molecule: NC(=O)c1ccc[n+]([C@@H]2O[C@H](COP(=O)([O-])OP(=O)(O)OC[C@H]3O[C@@H](n4cnc5c(N)ncnc54)[C@H](O)[C@@H]3O)[C@@H](O)[C@H]2O)c1 [Nicotinamide-adenine dinucleotide]
- Relative Activity (%) (pyranose oxidase [1]; [4]): 0%

Molecule: O=O [Oxygen]
- electron acceptor suitability (in words) (pyranose oxidase [1]): optimum electron acceptor
- Relative Activity (%) (pyranose oxidase [1]; pH 7): 100%

Molecule: O=C(CO)[C@@H](O)[C@H](O)[C@H](O)CO [fructose]
- Relative Activity (%) (pyranose oxidase [3]): 0%

Molecule: O=C[C@H](O)[C@@H](O)[C@@H](O)[C@H](O)CO [galactose]
- Relative Activity (%) (pyranose oxidase [3]): 0.9%

Molecule: O=C(O)[C@H](O)[C@@H](O)[C@H](O)[C@H](O)CO [gluconic acid]
- Relative Activity (%) (pyranose oxidase [3]): 0%

Molecule: N[C@H]1C(O)O[C@H](CO)[C@@H](O)[C@@H]1O (stereo partly shown) [glucosamine]
- Relative Activity (%) (pyranose oxidase [3]): 0%

Molecule: OO [hydrogen peroxide]
- inhibition at 18500 µM (pyranose oxidase [2]; pH 7, read-out: Percent Inhibition (%)): 20%

Molecule: OC[C@H]1O[C@@H](O[C@H]2[C@H](O)[C@@H](O)C(O)O[C@@H]2CO)[C@H](O)[C@@H](O)[C@H]1O (stereo partly shown) [lactose]
- Relative Activity (%) (pyranose oxidase [3]): 0%

Molecule: OC[C@H]1O[C@H](O[C@H]2[C@H](O)[C@@H](O)[C@H](O)O[C@@H]2CO)[C@H](O)[C@@H](O)[C@@H]1O [maltose]
- Relative Activity (%) (pyranose oxidase [3]): 0%

Molecule: OC[C@@H](O)[C@@H](O)[C@H](O)[C@H](O)CO [mannitol]
- Relative Activity (%) (pyranose oxidase [3]): 0%

Molecule: O=[N+]([O-])[O-].[Ag+] [silver nitrate]
- Percent Inhibition (%) (pyranose oxidase [2]; [5]): 53.3%

Molecule: O=C(CO)[C@H](O)[C@@H](O)[C@H](O)CO [sorbose]
- Relative Activity (%) (pyranose oxidase [3]): 3.4%

Molecule: OC[C@H]1O[C@H](O[C@H]2O[C@H](CO)[C@@H](O)[C@H](O)[C@H]2O)[C@H](O)[C@@H](O)[C@@H]1O [trehalose]
- Relative Activity (%) (pyranose oxidase [3]): 0%

Molecule: O=C[C@H](O)[C@@H](O)[C@H](O)CO [xylose]
- Relative Activity (%) (pyranose oxidase [3]): 2.6%

Molecule: Nitroprusside-tetrazolium
- Relative Activity (%) (pyranose oxidase [1]; [4]): 0%

Molecule: cobalt sulfate
- Percent Inhibition (%) (pyranose oxidase [2]; [5]): 13.3%

Molecule: copper sulfate
- Percent Inhibition (%) (pyranose oxidase [2]; [5]): 35.7%

Molecule: magnesium sulfate
- Percent Inhibition (%) (pyranose oxidase [2]; [5]): 0%
